Laboratory results taken from patent publication US20190093170A1, “USE OF TRANSLATIONAL PROFILING TO IDENTIFY TARGET MOLECULES FOR THERAPEUTIC TREATMENT” (THE REGENTS OF THE UNIVERSITY OF CALIFORNIA, priority 2013, published 2019).

System: PC3 human prostate cancer cells
Experiment: Ribosome profiling: translational efficiency (ribosome footprint vs RNA-seq read density);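 also: Per-gene footprint-to-mRNA density ratio averaged per codon over the coding sequence, scaled so the median gene equals 1.0 after excluding regulated genes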
Format: cell-based
Details: for Rapamycin TrlEff: 3-hour treatment with rapamycin (50 nM) in PC3 cells
Method: Given the critical role for mTOR in prostate cancer, PC3 human prostate cancer cells, in which mTOR is constitutively hyperactivated, were used to delineate translationally controlled gene expression networks upon complete or partial mTOR inhibition. Ribosome profiling was optimized to assess quantitatively ribosome occupancy genome-wide in cancer cells.
Cells were subsequently treated with cycloheximide (100 μg ml^−1; Sigma) and detergent lysis was performed in the dish. The lysate was treated with DNase and clarified, and a sample was taken for RNA-seq analysis. Lysates were subjected to ribosome footprinting by nuclease treatment. Ribosome-protected fragments were purified, and deep sequencing libraries were generated from these fragments, as well as from poly(A) mRNA purified from non-nuclease-treated lysates. These libraries were analyzed by sequencing on an Illumina GAII.
Ribosome footprint and RNA-seq sequencing reads were aligned against a library of transcripts from the UCSC Known Genes database GRCh37/hg19. The first 25 nucleotides of each read were aligned using Bowtie and this initial alignment was then extended to encompass the full fragment-derived portion of the sequencing read while excluding the linker sequence. Read density profiles were then constructed for the canonical transcript of each gene, using only reads with 0 or 1 total mismatches between the read sequence and the reference sequence, comprised of the transcript fragment followed by the linker sequence. Footprint reads were assigned to an A site nucleotide at position +15 to +17 of the alignment, based on the total fragment length; mRNA reads were assigned to the first nucleotide of the alignment. The average read density per codon was then computed for the coding sequence of each transcript, excluding the first 15 and last 5 codons, which can display atypical ribosome accumulation.
Average read density was used as a measure of mRNA abundance (RNA-seq reads) and of protein synthesis (ribosome profiling reads). For most analyses, genes were filtered to require at least 256 reads in the relevant RNA-seq samples. Translational efficiency was computed as the ratio of ribosome footprint read density to RNA-seq read density, scaled to normalize the translational efficiency of the median gene to 1.0 after excluding regulated genes (log 2 fold-change+1.5 after normalizing for the all-gene median). Changes in protein synthesis, mRNA abundance and translational efficiency were similarly computed as the ratio of read densities between different samples, normalized to give the median gene a ratio of 1.0. This normalization corrects for differences in the absolute number of sequencing reads obtained for different libraries.

CO[C@H]1C[C@@H]2CC[C@@H](C)[C@@](O)(O2)C(=O)C(=O)N2CCCC[C@H]2C(=O)O[C@H]([C@H](C)C[C@@H]2CC[C@@H](O)[C@H](OC)C2)CC(=O)[C@H](C)/C=C(\C)[C@@H](O)[C@@H](OC)C(=O)[C@H](C)C[C@H](C)/C=C/C=C/C=C/1C [Rapamycin, rapamycin]
Rapamycin TrlEff (gene ACD): 2.06
TrlEff (gene ACTG1): −0.07
TrlEff (gene AGRN): 0.51
TrlEff (gene AHCY): −0.23
TrlEff (gene ALKBH7): 0.28
TrlEff (gene AP2A1): −0.04
TrlEff (gene ARD1A): 0.01
TrlEff (gene ATP5G2): −0.28
Rapamycin TrlEff (gene C17orf28): 1.66
TrlEff (gene C21orf66): −0.09
Rapamycin TrlEff (gene CCNA1): 1.81
TrlEff (gene CCNI): −0.45
TrlEff (gene CD44): −0.46
TrlEff (gene CIRBP): 0.10
TrlEff (gene CLPTM1): 0.26
TrlEff (gene COL6A2): 0.43
TrlEff (gene CRTAP): −1.17
Rapamycin TrlEff (gene DDX51): 1.68
Rapamycin TrlEff (gene DGCR2): 1.69
TrlEff (gene ECSIT): 0.41
Rapamycin TrlEff (gene EEF1A1): −1.57
TrlEff (gene EEF1A2): −0.03
TrlEff (gene EEF1D): −0.84
TrlEff (gene EEF1G): −1.15
TrlEff (gene EEF2): −1.12
TrlEff (gene EIF3H): −0.79
TrlEff (gene EIF3L): −0.85
TrlEff (gene EIF4B): −1.21
TrlEff (gene EVPL): 0.30
TrlEff (gene FAM83H): 0.71
TrlEff (gene FAM128B): 0.27
TrlEff (gene FASN): 0.47
TrlEff (gene GAPDH): −0.27
TrlEff (gene GLTSCR2): −0.68
TrlEff (gene GNB2L1): −0.77
Rapamycin TrlEff (gene GTPBP3): 1.56
TrlEff (gene HNRNPA1): −0.86
TrlEff (gene HSPA8): −0.46
TrlEff (gene IMPDH2): −0.39
TrlEff (gene LAMA5): 0.87
TrlEff (gene LMF2): 0.39
Rapamycin TrlEff (gene MAPK6): −2.43
Rapamycin TrlEff (gene MAPKAPK2): 1.50
TrlEff (gene MTA1): −0.05
TrlEff (gene NCLN): 0.67
Rapamycin TrlEff (gene NFATC21P): 1.54
Rapamycin TrlEff (gene NR2F1): 1.94
TrlEff (gene PABPC1): −1.44
TrlEff (gene PABPC4): −0.80
TrlEff (gene PACS1): 0.04
TrlEff (gene PFDN5): −0.51
TrlEff (gene PGLS): 0.20
TrlEff (gene PGM1): −0.55
TrlEff (gene PNKP): 0.74
Rapamycin TrlEff (gene PRKD3): −1.72
TrlEff (gene PTGES2): 0.52
TrlEff (gene RABGGTB): −0.84
Rapamycin TrlEff (gene RBPJ): −1.58
TrlEff (gene RPL3): −1.08
TrlEff (gene RPL4): −0.85
TrlEff (gene RPL7): −1.06
TrlEff (gene RPL7A): −0.74
TrlEff (gene RPL9): −1.00
TrlEff (gene RPL10): −0.79
TrlEff (gene RPL10A): −0.94
TrlEff (gene RPL11): −1.08
TrlEff (gene RPL12): −0.94
TrlEff (gene RPL13): −0.38
TrlEff (gene RPL15): −0.51
TrlEff (gene RPL18A): −0.82
TrlEff (gene RPL19): −0.66
TrlEff (gene RPL22): −0.89
TrlEff (gene RPL22L1): −0.68
TrlEff (gene RPL24): −0.63
TrlEff (gene RPL26): −1.11
TrlEff (gene RPL27): −0.33
TrlEff (gene RPL27A): −0.96
Rapamycin TrlEff (gene RPL28): −1.59
TrlEff (gene RPL30): −0.99
TrlEff (gene RPL31): −0.62
TrlEff (gene RPL32): −0.97
TrlEff (gene RPL34): −1.12
TrlEff (gene RPL36A): −1.11
TrlEff (gene RPL37A): −1.02
TrlEff (gene RPL39): −1.65
Rapamycin TrlEff (gene RPL39): −2.11
TrlEff (gene RPL41): −1.15
TrlEff (gene RPLP0): −0.42
TrlEff (gene RPLP2): −1.18
TrlEff (gene RPS2): −0.56
TrlEff (gene RPS3): −0.92
TrlEff (gene RPS3A): −1.15
TrlEff (gene RPS4X): −1.15
TrlEff (gene RPS5): −0.77
TrlEff (gene RPS7): −0.76
TrlEff (gene RPS9): −0.60
TrlEff (gene RPS12): −1.22
TrlEff (gene RPS13): −0.82
TrlEff (gene RPS14): −0.60
TrlEff (gene RPS15): 0.03
TrlEff (gene RPS15A): −0.96
TrlEff (gene RPS19): −0.74
TrlEff (gene RPS20): −1.35
TrlEff (gene RPS21): −0.60
TrlEff (gene RPS25): −0.89
TrlEff (gene RPS27): −1.54
Rapamycin TrlEff (gene RPS27): −1.55
TrlEff (gene RPS27A): −0.89
TrlEff (gene RPS28): −0.80
Rapamycin TrlEff (gene SDCCAG10): −1.50
TrlEff (gene SLC19A1): 0.23
TrlEff (gene TKT): −0.11
TrlEff (gene TPT1): −1.22
TrlEff (gene TSC2): 0.34
TrlEff (gene UBA52): −0.22
Rapamycin TrlEff (gene UBTD2): −1.64
Rapamycin TrlEff (gene UCHL5): −1.56
Rapamycin TrlEff (gene VHL): 1.67
TrlEff (gene VIM): −0.40
TrlEff (gene YB1): −0.59
